Measured values: patent US9260425B2 (Genetech, Inc., priority 2011, dated 2016)

Target: Pim-1 (Homo sapiens (Human), UniProt P11309)
Assay: Pim kinase binding activity assay (Example 901), PIM-1 enzyme, Caliper microfluidic peptide phosphorylation
Type: biochemical
Settings: 20 pM PIM-1, 10 μM ATP, 1 μM FAM-peptide, 90 minutes at room temperature
Method in brief: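 The readout was microfluidic mobility-shift separation of a FAM-tagged Pim-specific peptide, excited at 488 nm and read at 530 nm, with Ki calculated from percent conversion. Reactions held 20 pM PIM-1, 1 μM peptide and 10 μM ATP in pH 7.2 HEPES/MgCl2/DTT buffer, ran 90 min at room temperature and were stopped with EDTA.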

Pim-1, sequence (P11309 whole entry): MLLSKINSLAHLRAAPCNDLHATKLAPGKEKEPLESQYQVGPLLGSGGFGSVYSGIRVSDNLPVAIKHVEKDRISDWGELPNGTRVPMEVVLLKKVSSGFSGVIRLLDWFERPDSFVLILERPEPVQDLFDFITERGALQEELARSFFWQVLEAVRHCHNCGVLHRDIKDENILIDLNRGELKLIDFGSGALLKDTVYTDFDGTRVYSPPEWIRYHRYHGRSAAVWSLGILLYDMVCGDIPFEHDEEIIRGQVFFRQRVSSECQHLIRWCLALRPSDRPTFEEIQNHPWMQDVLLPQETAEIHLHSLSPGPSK

Compound	Ki
CN1CCN(c2cc3c(-c4cnn(C)c4)n[nH]c3cn2)CC1=O [Example 331, 1-methyl-4-(3-(1-methyl-1H-pyrazol-4-yl)-1H-pyrazolo[3,4-c]pyridin-5-yl)piperazin-2-one]	721 nM
Cc1n[nH]c2cnc(-c3cncc(N4CCC[C@@H](N)C4)n3)cc12 [Example 121, (R)-1-(6-(3-methyl-1H-pyrazolo[3,4-c]pyridin-5-yl)pyrazin-2-yl)piperidin-3-amine]	6.91 nM
Cc1ccc(-c2n[nH]c3cnc(-c4cnn(C)c4)cc23)nc1N1CC(N2CCNC(=O)C2)C1 [Example 425, 4-(1-(3-methyl-6-(5-(1-methyl-1H-pyrazol-4-yl)-1H-pyrazolo[3,4-c]pyridin-3-yl)pyridin-2-yl)azetidin-3-yl)piperazin-2-one]	0.618 nM
N[C@@H]1CCN(c2ccc(-c3n[nH]c4cnc(-c5cccnc5)cc34)cn2)C1 [Example 203, (R)-1-(5-(5-(pyridin-3-yl)-1H-pyrazolo[3,4-c]pyridin-3-yl)pyridin-2-yl)pyrrolidin-3-amine]	1.02 nM
O[C@@H]1CCCN(c2cccc(-c3n[nH]c4cnc(-c5cccnc5)cc34)n2)C1 [Example 271, (R)-1-(6-(5-(pyridin-3-yl)-1H-pyrazolo[3,4-c]pyridin-3-yl)pyridin-2-yl)piperidin-3-ol]	0.073 nM
Cc1ccc(-c2n[nH]c3cnc(-c4cccnc4)cc23)nc1N1CCC[C@@H](O)C1 [Example 309, (R)-1-(3-methyl-6-(5-(pyridin-3-yl)-1H-pyrazolo[3,4-c]pyridin-3-yl)pyridin-2-yl)piperidin-3-ol]	0.112 nM
c1cncc(-c2cc3c(-c4cncc(NC5CCNCC5)c4)n[nH]c3cn2)c1 [Example 170, N-(piperidin-4-yl)-5-(5-(pyridin-3-yl)-1H-pyrazolo[3,4-c]pyridin-3-yl)pyridin-3-amine]	0.443 nM
N#CCc1n[nH]c2cnc(-c3cn[nH]c3)cc12 [Example 145, 2-(5-(1H-pyrazol-4-yl)-1H-pyrazolo[3,4-c]pyridin-3-yl)acetonitrile]	324 nM
Cn1cc(-c2cc3c(-c4cnn(CC(C)(C)O)c4)n[nH]c3cn2)cn1 [Example 250, 2-methyl-1-(4-(5-(1-methyl-1H-pyrazol-4-yl)-1H-pyrazolo[3,4-c]pyridin-3-yl)-1H-pyrazol-1-yl)propan-2-ol]	0.389 nM
Cn1cc(-c2cc3c(-c4cccc(N5CCC[C@@](C)(O)C5)n4)n[nH]c3cn2)cn1 [Example 424, (R)-3-methyl-1-(6-(5-(1-methyl-1H-pyrazol-4-yl)-1H-pyrazolo[3,4-c]pyridin-3-yl)pyridin-2-yl)piperidin-3-ol]	0.073 nM
NCC1CCN(c2cccc(-c3n[nH]c4cnc(-c5cccnc5)cc34)n2)CC1 [Example 278, (1-(6-(5-(pyridin-3-yl)-1H-pyrazolo[3,4-c]pyridin-3-yl)pyridin-2-yl)piperidin-4-yl)methanamine]	0.1 nM
CNC(=O)C1(N)CCN(c2cccc(-c3n[nH]c4cnc(-c5cccnc5)cc34)n2)CC1 [Example 236, 4-amino-N-methyl-1-(6-(5-(pyridin-3-yl)-1H-pyrazolo[3,4-c]pyridin-3-yl)pyridin-2-yl)piperidine-4-carboxamide]	0.353 nM
O=C1OCCN1c1cc2c(-c3cccc(N4CCCCC4)n3)n[nH]c2cn1 [Example 373, 3-(3-(6-(piperidin-1-yl)pyridin-2-yl)-1H-pyrazolo[3,4-c]pyridin-5-yl)oxazolidin-2-one]	483 nM
CCn1cc(-c2cc3c(-c4cccc(N5CCC[C@@H](N)CC5)n4)n[nH]c3cn2)cn1 [Example 471, (R)-1-(6-(5-(1-ethyl-1H-pyrazol-4-yl)-1H-pyrazolo[3,4-c]pyridin-3-yl)pyridin-2-yl)azepan-4-amine]	0.073 nM
Cc1ccc(-c2n[nH]c3cnc(-c4cccnc4)cc23)nc1N1CCC[C@@H](N)C1 [Example 310, (R)-1-(3-methyl-6-(5-(pyridin-3-yl)-1H-pyrazolo[3,4-c]pyridin-3-yl)pyridin-2-yl)piperidin-3-amine]	0.137 nM
CN1C(=O)CN(c2cc3c(-c4cccc(N5CCNCC5)n4)n[nH]c3cn2)C1=O [Example 371, 3-methyl-1-(3-(6-(piperazin-1-yl)pyridin-2-yl)-1H-pyrazolo[3,4-c]pyridin-5-yl)imidazolidine-2,4-dione]	31.1 nM
CCn1cc(-c2cc3c(-c4cccc(N5CCNCC(CO)C5)n4)n[nH]c3cn2)cn1 (stereo not drawn) [Example 512, (1-(6-(5-(1-ethyl-1H-pyrazol-4-yl)-1H-pyrazolo[3,4-c]pyridin-3-yl)pyridin-2-yl)-1,4-diazepan-6-yl)methanol]	0.04 nM
C1=C(c2n[nH]c3cnc(-c4cccnc4)cc23)CCO1 [Example 284, 3-(4,5-dihydrofuran-3-yl)-5-(pyridin-3-yl)-1H-pyrazolo[3,4-c]pyridine]	10.6 nM
CCn1cc(-c2cc3c(-c4cccc(N5CCN(C6COC6)CC5)n4)n[nH]c3cn2)cn1 [Example 480, 5-(1-ethyl-1H-pyrazol-4-yl)-3-(6-(4-(oxetan-3-yl)piperazin-1-yl)pyridin-2-yl)-1H-pyrazolo[3,4-c]pyridine]	0.311 nM
CCn1cc(-c2cc3c(-c4cc(C)ccn4)n[nH]c3cn2)cn1 [Example 492, 5-(1-ethyl-1H-pyrazol-4-yl)-3-(4-methylpyridin-2-yl)-1H-pyrazolo[3,4-c]pyridine]	23.2 nM
Fc1ccccc1-c1n[nH]c2cnc(-c3cn[nH]c3)cc12 [Example 136, 3-(2-fluorophenyl)-5-(1H-pyrazol-4-yl)-1H-pyrazolo[3,4-c]pyridine]	8.69 nM
Cn1cc(-c2n[nH]c3cnc(-c4cncc(N5CCC(N)CC5)n4)cc23)cn1 [Example 221, 1-(6-(3-(1-methyl-1H-pyrazol-4-yl)-1H-pyrazolo[3,4-c]pyridin-5-yl)pyrazin-2-yl)piperidin-4-amine]	0.096 nM
N[C@@H]1CCCN(c2nc(-c3n[nH]c4cnc(-c5cccnc5)cc34)ccc2Br)C1 [Example 290, (R)-1-(3-bromo-6-(5-(pyridin-3-yl)-1H-pyrazolo[3,4-c]pyridin-3-yl)pyridin-2-yl)piperidin-3-amine]	0.082 nM
CCn1cc(-c2cc3c(-c4cccc(N5CCCC[C@H](O)C5)n4)n[nH]c3cn2)cn1 [Example 501, (S)-1-(6-(5-(1-ethyl-1H-pyrazol-4-yl)-1H-pyrazolo[3,4-c]pyridin-3-yl)pyridin-2-yl)azepan-3-ol]	0.103 nM
CCn1cc(-c2cc3c(-c4cccc(N5CCN[C@@H](C)C5)n4)n[nH]c3cn2)cn1 [Example 396, (S)-5-(1-ethyl-1H-pyrazol-4-yl)-3-(6-(3-methylpiperazin-1-yl)pyridin-2-yl)-1H-pyrazolo[3,4-c]pyridine]	0.081 nM
N[C@@H]1CCCN(c2nc(-c3n[nH]c4cnc(-c5cccnc5)cc34)ccc2Cl)C1 [Example 266, (R)-1-(3-chloro-6-(5-(pyridin-3-yl)-1H-pyrazolo[3,4-c]pyridin-3-yl)pyridin-2-yl)piperidin-3-amine]	0.06 nM
C=Cc1ccc(-c2n[nH]c3cnc(-c4cnn(CC)c4)cc23)nc1N1CCC[C@H](N)C1 [Example 431, (S)-1-(6-(5-(1-ethyl-1H-pyrazol-4-yl)-1H-pyrazolo[3,4-c]pyridin-3-yl)-3-vinylpyridin-2-yl)piperidin-3-amine]	0.023 nM
